Experimental data taken from paper PMC9516332 (Frontiers in Oncology, 2022).
Read-outs that look alike come from different tables or passages of the source.

What was measured:
AP-1060 (ETV6-NTRK3) = assay: Cell viability assay; conditions: read-out: IC50 in cell proliferation assay
134 cancer cell lines = assay: Cell viability assay (ATPlite, 72 hours), IC50 on cancer cell line panel

Question: How did the IC50 (AP-1060 (ETV6-NTRK3)) turn out when CCc1cc2c(cc1N1CCC(N3CCOCC3)CC1)C(C)(C)c1[nH]c3cc(C#N)ccc3c1C2=O [alectinib] was run?
Answer: 1.13 µM

Question: What about the IC50 (134 cancer cell lines; HEC-6, read-out: IC50 in cell proliferation assay) of the same compound?
Answer: > 10 µM

Question: And the IC50 (134 cancer cell lines; Homo sapiens, 769-P, read-out: IC50 in cell proliferation assay)?
Answer: 9.15 µM

Question: What about the IC50 (134 cancer cell lines; Homo sapiens, 786-0, read-out: IC50 in cell proliferation assay) of the same compound?
Answer: > 10 µM

Question: And the IC50 (134 cancer cell lines; Homo sapiens, A 172, read-out: IC50 in cell proliferation assay)?
Answer: > 10 µM

Question: What about the IC50 (134 cancer cell lines; Homo sapiens, A204, read-out: IC50 in cell proliferation assay) of the same compound?
Answer: > 10 µM

Question: And the IC50 (134 cancer cell lines; Homo sapiens, A498, read-out: IC50 in cell proliferation assay)?
Answer: > 10 µM

Question: And the IC50 (134 cancer cell lines; Homo sapiens, A549, read-out: IC50 in cell proliferation assay)?
Answer: > 10 µM

Question: What about the IC50 (134 cancer cell lines; Homo sapiens, A704, read-out: IC50 in cell proliferation assay) of the same compound?
Answer: > 10 µM

Question: And the IC50 (134 cancer cell lines; Homo sapiens, A-375, read-out: IC50 in cell proliferation assay)?
Answer: > 10 µM

Question: And the IC50 (134 cancer cell lines; Homo sapiens, A-427, read-out: IC50 in cell proliferation assay)?
Answer: > 10 µM

Question: What about the IC50 (134 cancer cell lines; Homo sapiens, ACHN, read-out: IC50 in cell proliferation assay) of the same compound?
Answer: 3.52 µM

Question: And the IC50 (134 cancer cell lines; Homo sapiens, AN3-CA, read-out: IC50 in cell proliferation assay)?
Answer: > 10 µM

Question: What about the IC50 (134 cancer cell lines; Homo sapiens, ASPC1, read-out: IC50 in cell proliferation assay) of the same compound?
Answer: > 10 µM

Question: What about the IC50 (134 cancer cell lines; Homo sapiens, AU565, read-out: IC50 in cell proliferation assay) of the same compound?
Answer: > 10 µM

Question: What about the IC50 (134 cancer cell lines; Homo sapiens, BT-20, read-out: IC50 in cell proliferation assay) of the same compound?
Answer: > 10 µM

Question: And the IC50 (134 cancer cell lines; Homo sapiens, BT-474, read-out: IC50 in cell proliferation assay)?
Answer: > 10 µM

Question: What about the IC50 (134 cancer cell lines; Homo sapiens, BT-549, read-out: IC50 in cell proliferation assay) of the same compound?
Answer: 2.71 µM

Question: What about the IC50 (134 cancer cell lines; Homo sapiens, BXPC-3, read-out: IC50 in cell proliferation assay) of the same compound?
Answer: > 10 µM

Question: And the IC50 (134 cancer cell lines; Homo sapiens, C-33-A, read-out: IC50 in cell proliferation assay)?
Answer: 1.99 µM

Question: What about the IC50 (134 cancer cell lines; Homo sapiens, CAL-27, read-out: IC50 in cell proliferation assay) of the same compound?
Answer: 1.18 µM

Question: What about the IC50 (134 cancer cell lines; Homo sapiens, CCF-STTG1, read-out: IC50 in cell proliferation assay) of the same compound?
Answer: 3.02 µM

Question: What about the IC50 (134 cancer cell lines; Homo sapiens, CCRF-CEM, read-out: IC50 in cell proliferation assay) of the same compound?
Answer: > 10 µM

Question: And the IC50 (134 cancer cell lines; Homo sapiens, COLO 205, read-out: IC50 in cell proliferation assay)?
Answer: > 10 µM

Question: What about the IC50 (134 cancer cell lines; Homo sapiens, COLO-829, read-out: IC50 in cell proliferation assay) of the same compound?
Answer: > 10 µM

Question: And the IC50 (134 cancer cell lines; Homo sapiens, DLD-1, read-out: IC50 in cell proliferation assay)?
Answer: > 10 µM

Question: What about the IC50 (134 cancer cell lines; Homo sapiens, DU-145, read-out: IC50 in cell proliferation assay) of the same compound?
Answer: > 10 µM

Question: What about the IC50 (134 cancer cell lines; Homo sapiens, DU-4475, read-out: IC50 in cell proliferation assay) of the same compound?
Answer: > 10 µM

Question: What about the IC50 (134 cancer cell lines; Homo sapiens, Daoy, read-out: IC50 in cell proliferation assay) of the same compound?
Answer: 3.45 µM

Question: What about the IC50 (134 cancer cell lines; Homo sapiens, DoTc2-4510, read-out: IC50 in cell proliferation assay) of the same compound?
Answer: 0.477 µM

Question: What about the IC50 (134 cancer cell lines; Homo sapiens, EOL1, read-out: IC50 in cell proliferation assay) of the same compound?
Answer: 0.193 µM

Question: And the IC50 (134 cancer cell lines; Homo sapiens, FaDu, read-out: IC50 in cell proliferation assay)?
Answer: > 10 µM

Question: What about the IC50 (134 cancer cell lines; Homo sapiens, G-361, read-out: IC50 in cell proliferation assay) of the same compound?
Answer: > 10 µM

Question: And the IC50 (134 cancer cell lines; Homo sapiens, HCC827, read-out: IC50 in cell proliferation assay)?
Answer: 1.59 µM

Question: And the IC50 (134 cancer cell lines; Homo sapiens, HCC4006, read-out: IC50 in cell proliferation assay)?
Answer: 1.33 µM

Question: What about the IC50 (134 cancer cell lines; Homo sapiens, HCT-15, read-out: IC50 in cell proliferation assay) of the same compound?
Answer: > 10 µM

Question: And the IC50 (134 cancer cell lines; Homo sapiens, HCT-116, read-out: IC50 in cell proliferation assay)?
Answer: > 10 µM

Question: And the IC50 (134 cancer cell lines; Homo sapiens, HEC-1, read-out: IC50 in cell proliferation assay)?
Answer: 1.32 µM

Question: What about the IC50 (134 cancer cell lines; Homo sapiens, HEC-1B, read-out: IC50 in cell proliferation assay) of the same compound?
Answer: > 10 µM

Question: What about the IC50 (134 cancer cell lines; Homo sapiens, HL-60, read-out: IC50 in cell proliferation assay) of the same compound?
Answer: > 10 µM

Question: And the IC50 (134 cancer cell lines; Homo sapiens, HT, read-out: IC50 in cell proliferation assay)?
Answer: > 10 µM

Question: And the IC50 (134 cancer cell lines; Homo sapiens, HT-1080, read-out: IC50 in cell proliferation assay)?
Answer: 7.55 µM

Question: What about the IC50 (134 cancer cell lines; Homo sapiens, Hs746T, read-out: IC50 in cell proliferation assay) of the same compound?
Answer: > 10 µM

Question: What about the IC50 (134 cancer cell lines; Homo sapiens, Hs-578T, read-out: IC50 in cell proliferation assay) of the same compound?
Answer: 4.92 µM

Question: What about the IC50 (134 cancer cell lines; Homo sapiens, HuTu80, read-out: IC50 in cell proliferation assay) of the same compound?
Answer: > 10 µM

Question: What about the IC50 (134 cancer cell lines; Homo sapiens, J82, read-out: IC50 in cell proliferation assay) of the same compound?
Answer: > 10 µM

Question: What about the IC50 (134 cancer cell lines; Homo sapiens, Jurkat E6.1, read-out: IC50 in cell proliferation assay) of the same compound?
Answer: > 10 µM

Question: And the IC50 (134 cancer cell lines; Homo sapiens, K562, read-out: IC50 in cell proliferation assay)?
Answer: > 10 µM

Question: What about the IC50 (134 cancer cell lines; Homo sapiens, KATO III, read-out: IC50 in cell proliferation assay) of the same compound?
Answer: > 10 µM

Question: And the IC50 (134 cancer cell lines; Homo sapiens, KG-1, read-out: IC50 in cell proliferation assay)?
Answer: 0.442 µM

Question: And the IC50 (134 cancer cell lines; Homo sapiens, KLE, read-out: IC50 in cell proliferation assay)?
Answer: > 10 µM

Question: And the IC50 (134 cancer cell lines; Homo sapiens, KMS-11, read-out: IC50 in cell proliferation assay)?
Answer: > 10 µM

Question: What about the IC50 (134 cancer cell lines; Homo sapiens, KU812, read-out: IC50 in cell proliferation assay) of the same compound?
Answer: > 10 µM

Question: And the IC50 (134 cancer cell lines; Homo sapiens, Kasumi 1, read-out: IC50 in cell proliferation assay)?
Answer: 1.53 µM

Question: And the IC50 (134 cancer cell lines; Homo sapiens, LC-2-ad, read-out: IC50 in cell proliferation assay)?
Answer: 1.11 µM

Question: What about the IC50 (134 cancer cell lines; Homo sapiens, LNCaP-Clone-FGC, read-out: IC50 in cell proliferation assay) of the same compound?
Answer: > 10 µM

Question: What about the IC50 (134 cancer cell lines; Homo sapiens, LS174T, read-out: IC50 in cell proliferation assay) of the same compound?
Answer: > 10 µM

Question: And the IC50 (134 cancer cell lines; Homo sapiens, LS-411N, read-out: IC50 in cell proliferation assay)?
Answer: > 10 µM
